Common to all, as to experiment: NCI anticancer screen, dose series, 48 h
The subject of test [1] is SN12C renal.
For test [2], the system named is HCT-116 colon.
The test system of test [3] is UO-31 renal.
Test [4] relates to HT29 colon.
In test [5] the test system is SF-268 CNS.
For test [6], the system named is K-562 leukemia.
Test [7] relates to KM12 colon.
The subject of test [8] is SNB-19 CNS.
Test [9] deals with NCI-H460 lung.

Molecules are shown by their SMILES.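 Step 1: Grow cells in 96-well plates. Step 2: Expose to compound for 48 hours at 5 concentrations. Step 3: Interpolate endpoints linearly; if unreached, use highest concentration. Abbreviation: GI50, concentration required for 50% inhibition of growth. At the TGI there is no net growth.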

Take `Oc1ccc(Br)cc1C=Nc1ccc(N=Cc2cc(Br)ccc2O)cc1`: the TGI in test [1], in test [2], in test [3], in test [4], in test [5] and in test [6] was above 100 µM in each case. The TGI in test [7], in test [8] and in test [9] was above 100 µM in each case.
Regarding `COC(=O)/C(=C\c1ccc(N(CCC#N)CCC#N)cc1)NC(=O)c1cc([N+](=O)[O-])ccc1Cl`, the TGI in test [1], in test [2], in test [3], in [4], in test [5] and in [6] was above 100 µM throughout. In addition, the TGI in [7], in [8] and in [9] was above 100 µM throughout.
Consider `O=c1c2ccccc2nc(-c2ccccc2)n1NC(=S)Nc1ccccc1`, for which the TGI in [1], in test [2], in [3], in [4], in test [5] and in test [6] was above 100 µM each time. The TGI in test [7] and in [9] was above 100 µM in each case.
For the compound `OCCNCCOc1ccc(/C(=C(/Cl)c2ccccc2)c2ccccc2)cc1`, the TGI stood at 19.7 µM in test [1]; 20.2 µM in test [2]; 22.2 µM in test [3]; 10 µM in [4]; 11 µM in test [6]; 13.5 µM in test [7]. Further, the results for the TGI in [8] and in test [9] were 28.4 µM and 18.2 µM, respectively.
In the case of `CCOc1ccccc1NC(=O)C(=O)Cc1nc2ccccc2s1`, the TGI in test [1], in [2], in test [3], in [4], in test [5] and in [7] was above 100 µM each time. In addition, the TGI in test [8] and in test [9] was above 100 µM in each case.
In the case of `COC1=C(Br)C(=O)c2nc(C)ccc2C1=O`, the TGI in [1] is 29.1 µM; in test [2], 21.1 µM; in test [3], 32.4 µM; in [4], 34.9 µM; in test [5] it was 33.1 µM; in test [6], above 27.8 µM. Also, the TGI is 31.7 µM in test [7], above 55.1 µM in [8] and 31.7 µM in test [9].
Consider `[F][Sn]([F])([c]1ccccc1)[c]1ccccc1`, for which the GI50 in [1] was 1.68 µM; in test [2] it was 1500 nM; in test [3], 1920 nM; in test [4], 1780 nM; in test [5], 1840 nM; in test [6] it was 702 nM. Besides, the GI50 is 1700 nM in test [7], 2250 nM in test [8] and 2.27 µM in [9]. Moreover, the TGI in test [1] turned out to be 3.18 µM; in test [2], 3.26 µM; in test [3] it was 3.34 µM; in [4], 3.85 µM; in [5], 3.78 µM; in [6], 4.96 µM. Moreover, the TGI in test [7] was found to be 3.43 µM; in test [8] it was 5.58 µM; in [9], 4.97 µM.
`O=S1(=O)OCCOS(=O)(=O)C1Cl`: the TGI in test [1], in test [2], in [3], in [4], in test [5] and in [6] was above 100 µM in each case. Further, the TGI in [7] and in test [8] was above 100 µM in each case.
`CC1CN1c1c(C(=O)/C=C/c2ccc(Cl)cc2)c(-c2ccccc2)nn(C)c1=O` (configuration not stated): the TGI is 8.45 µM in test [1]; 6.47 µM in test [2]; above 10 µM in [3]; above 10 µM in [4]; above 10 µM in [5]; 8.8 µM in test [6]. Besides, the TGI in test [7] is above 10 µM; in [8] it was above 10 µM; in test [9], 4.12 µM.
With `CC(=O)OC1C2CCC1C1C2C2(Cl)C(Cl)=C(Cl)C1(Cl)C2(Cl)Cl` (configuration not stated), the TGI in test [1] worked out at 28.4 µM; in [2], 27.8 µM; in test [3], 25.2 µM; in test [4], 28 µM; in test [5], 32.6 µM; in test [7], 27.6 µM. In addition, the values for the TGI in [8] and in [9] were 28.6 µM and 27.4 µM, respectively.
As for `O=C(OCC(OC(=O)c1ccccc1)C(OC(=O)c1ccccc1)C(OC(=O)c1ccccc1)c1cnn(-c2ccccc2)n1)c1ccccc1` (configuration not stated), the TGI in test [1], in [2], in test [3], in test [4], in test [5] and in test [6] was above 100 µM in each case. Further, the TGI in test [7], in test [8] and in test [9] was above 100 µM throughout.
As to `CC(C)(C)OC(=O)N1N=NC2C1C1CC(OCc3ccccc3)(OCc3ccccc3)C2O1` (configuration not stated), the TGI is above 100 µM in test [1]; above 100 µM in test [3]; above 100 µM in [4]; above 100 µM in test [5]; 63.6 µM in test [6]; above 100 µM in [7]. The compound further gave a TGI in test [9] above 100 µM.
Take `N.N.NCCCCCCCCCN.O=C([O-])CC(=O)[O-].O=C([O-])CC(=O)[O-].[Pt+4].[Pt+4]`: the GI50 was 67.5 µM in [1]; above 100000 nM in [2]; above 100000 nM in test [3]; above 100000 nM in test [4]; above 100000 nM in test [5]; above 100000 nM in test [6]. For the same compound, the values for the GI50 in test [7], in [8] and in test [9] were above 100000 nM, above 100000 nM and 25.8 µM, respectively. Moreover, the TGI in test [1], in test [2], in [3], in test [4], in [5] and in test [6] was above 100 µM each time. Besides, the TGI in [7], in [8] and in [9] was above 100 µM in each case.
Turning to `OCC(O)CNc1ccnc2cc(Cl)ccc12` (configuration not stated), the TGI in test [1], in test [2], in [3], in [4], in [5] and in test [6] was above 100 µM in each case. Moreover, the TGI in test [7], in [8] and in test [9] was above 100 µM each time.
As to `Clc1cc(Cl)cc(Nc2ccc3cc(OCCCN4CCOCC4)ccc3n2)c1`, the GI50 was 3.46 µM in test [1]; 1560 nM in [4]; 2900 nM in test [5]; 1580 nM in test [6]; 2230 nM in [7]. Moreover, the TGI is above 100 µM in test [1]; 3.74 µM in test [4]; above 100 µM in test [5]; 4.42 µM in test [6]; 5.4 µM in test [7].
Consider `COC(=O)c1cccc2cccc(C(=O)Nc3ccc(Cl)cc3)c12`, for which the TGI in test [1] was above 100 µM; in test [2] it was above 100 µM; in test [3] it was above 100 µM; in test [4] it was above 100 µM; in test [5], above 100 µM; in [6], above 33 µM. The TGI in test [7], in test [8] and in [9] was above 100 µM in each case.
Consider `CCCCc1c2c(nc3c1CCC/C3=C\c1ccccc1)/C(=C/c1ccccc1)CCC2`, for which the TGI in test [1], in [2], in test [3], in [4], in [5] and in test [6] was above 100 µM each time. Further, the TGI in test [7], in test [8] and in [9] was above 100 µM each time.
`N#CC(C(=O)CCC(=O)Nc1cccc(C(F)(F)F)c1)c1ccc(Cl)cc1` (configuration not stated): the TGI in test [1], in test [2], in test [3], in test [4], in test [5] and in test [6] was above 100 µM throughout. Also, the TGI in test [7], in [8] and in test [9] was above 100 µM throughout.
With `CC1=C(c2cc(C(=O)Nc3ccc(Cl)cc3)nc(=S)[nH]2)Sc2ccccc2N1`, the TGI in test [1], in test [2], in test [3], in [4], in [5] and in [6] was above 100 µM throughout. The TGI in test [7], in [8] and in [9] was above 100 µM in each case.
On to `Cc1cccc(C(C)C)c1NC(=O)C(=O)C(C(=O)c1ccccc1F)C1OC(=O)c2ccccc21` (configuration not stated), for which the TGI in test [1] was 46.8 µM; in test [2], 27.5 µM; in test [3], 38.3 µM; in [4], 71.7 µM; in test [5] it was 92.9 µM; in test [6] it was above 100 µM. The TGI in [7] turned out to be 50 µM; in test [8] it was 29 µM; in test [9] it was 83.9 µM.
As to `CC(C(=O)n1c2ccccc2c2ccccc21)N(c1ccccc1)c1ccccc1` (configuration not stated), the TGI in test [1] was 41.4 µM; in [2], 32.7 µM; in [3] it was 35.1 µM; in [4], 37.7 µM; in [5], 36.2 µM; in [6], 40.7 µM. Also, the TGI in test [8] and in test [9] was above 100 µM throughout.
On to `Cc1cccc(C)c1NC(=O)C(=O)CC(=O)c1cccc([N+](=O)[O-])c1`, for which the TGI in test [1], in [2], in test [3], in test [4], in test [5] and in test [6] was above 100 µM in each case. In addition, the TGI in [7], in test [8] and in test [9] was above 100 µM each time.
Take `O=C(O)CSc1n[nH]c(Cc2ccccc2)n1`: the TGI in [1], in [2], in test [3], in [4], in test [5] and in test [6] was above 100 µM throughout. Also, the TGI in [7], in [8] and in [9] was above 100 µM throughout.
For the compound `c1ccc(CSc2nc3ccccc3nc2-c2cccs2)cc1`, the TGI in [1], in test [2], in [3], in test [4], in test [5] and in [6] was above 100 µM each time. Also, the TGI in test [7], in [8] and in test [9] was above 100 µM throughout.
Turning to `O=C(O)CN(c1ccccc1)S(=O)(=O)c1ccc([N+](=O)[O-])cc1`, the TGI in test [1], in test [3], in test [4], in test [6], in test [7] and in [8] was above 100 µM each time. This compound also returned a TGI in [9] above 100 µM.
As to `Cc1cc(C(C)(C)C)cc(Cc2cc(C(C)(C)C)cc(Cc3cc(C(C)(C)C)cc(C)c3O)c2O)c1O`, the TGI in [1] is 33.6 µM; in [2], 10.2 µM; in test [3], 25.9 µM; in test [4], 24 µM; in test [5], 12.2 µM; in test [6], 16.4 µM. The values for the TGI in test [7], in [8] and in [9] were 21.4 µM, 26 µM and 21.8 µM, respectively.
In the case of `COc1cc(C2C(C(=O)Nc3cc(F)c(F)cc3F)=C(C)NC(C)=C2C(=O)Nc2cc(F)c(F)cc2F)ccc1O`, the TGI is 84.5 µM in test [1]; 35.5 µM in [3]; above 100 µM in [4]; above 100 µM in test [5]; 49.6 µM in [6]; 35.8 µM in test [7]. The TGI in [8] and in test [9] was above 100 µM throughout.
For the compound `CCOC(=O)/C(=C/c1cccc(C#N)c1)N(CC)CC`, the TGI in test [1], in test [2], in test [3], in test [4], in test [5] and in test [6] was above 100 µM in each case. The TGI in test [7] and in test [9] was above 100 µM throughout.
Turning to `CC(C)C1=C2CCC3(C)C(CCC4C5C6OCC5(CCC6(C)C)CCC43C)C2(C)CC1` (configuration not stated), the TGI in test [1] is 29.9 µM; in [2], 34.4 µM; in test [3] it was 33.8 µM; in test [4], 37 µM; in [5] it was 69.9 µM; in test [7], 35.2 µM. Further, the TGI in test [8] was 98.6 µM; in [9], 31.8 µM.

For the origin of these results see PubChem BioAssay (NCI).
